Experimental data from patent US8309546B2, “Morpholinopurine derivatives” (Daiichi Sankyo Company, Limited, priority 2008, dated 2012).

Columns and labels:
PI3Kα = PI3Kα (Homo sapiens, UniProt P42336); assay: PI3K kinase activity inhibition assay; type: biochemical; settings: Kinase-Glo Plus ATP detection, read-out: IC50 against PI3K
Outline: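 PI3Kα (50 nM solution) was reacted with 30 μM ATP and 45 μM PIP2 solutions, each in HEPES pH 7.4 with MgCl2 and DTT, for 2 h at room temperature. Remaining ATP was measured by Kinase-Glo Plus luminescence, and inhibition was derived from ATP consumed. IC50 was taken from curve fitting of the serial dilutions.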

[1] = tested on: human endometrial cancer cell strain AN3CA; assay: Cell growth inhibition test (MTT), AN3CA; type: cell-based; settings: AN3-CA, 72 h, 3 days culture, read-out: concentration exhibiting anti-cell effect (GI50)
Outline: (§1)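 Living cells were counted by MTT reduction (4 h; formazan dissolved in DMSO, A540) after 3-day compound exposure at 37° C, 5% CO2. Seeding was 5000 (AN3CA), 1000 (IGROV1) or 5000 (HT29) cells/well, dosing the following day. Growth rate T/C % used pre-dose baseline; GI50 interpolated at 50%.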

[2] = tested on: human ovary cancer cell strain IGROV1; assay: Cell growth inhibition test (MTT), IGROV1; type: cell-based; settings: IGROV-1, 72 h, IGROV1, 3 days culture, read-out: concentration exhibiting anti-cell effect (GI50)
Outline: as §1

[3] = tested on: human colon cancer cell strain HT29; assay: Cell growth inhibition test (MTT), HT29; type: cell-based; settings: HT-29, 72 h, HT29, 3 days culture, read-out: concentration exhibiting anti-cell effect (GI50)
Outline: as §1

[4] = tested on: Akt (threonine 308) phosphorylation in AN3CA tumor; assay: Akt phosphorylation inhibition assay in xenograft; type: in vivo, female nude mouse; settings: Mus musculus, AN3-CA, oral, 6 hr after dosing
Method: (§2) A tumor section was prepared from a human endometrial cancer cell strain AN3CA tumor mass formed in a female nude mouse as subcutaneously transplanted tumor and a xenograft model was prepared by subcutaneously transplanting the tumor to a female nude mouse. The test compound at a predetermined concentration was orally administered. After a predetermined time, the anesthetized mouse was exsanguinated to death, and a tumor mass was isolated. The tumor mass was crushed using a lysis buffer containing inhibitors of proteases and dephosphorylating enzymes (Cell Signaling Technology, Inc.) and the supernatant was separated by centrifugation to obtain a tumor extract. The protein content of the tumor extract was measured using DC Protein Assay Kit (Bio-Rad Laboratories, Inc.) and phosphorylation conditions of Akt (threonine 308) and S6 (serine 235 and 236) were analyzed by a usual technique of western blotting using tumor extracts containing the same amount of protein. The primary antibody and the secondary antibody used for detecting each molecule were rabbit anti-phospho-Akt(T308) antibody and HRP-labeled goat anti-rabbit IgG antibody or mouse anti-phospho-S6(S235/236) antibody and HRP-labeled sheep anti-mouse IgG antibody.
(§3) The signal intensity detected using an image analyzer Typhoon 9400 (GE Healthcare) was quantified, and the phosphorylation inhibition rate (%) was calculated by the following formula. Phosphorylation inhibitory activity (%) of Akt and S6 after treatment with test compound=100−100×(B/A) A: Signal intensity derived from phosphorylated protein in tumor mass isolated from mouse untreated with test compound B: Signal intensity derived from phosphorylated protein in tumor mass isolated from mouse treated with test compound

[5] = tested on: S6 (serine 235 and 236) phosphorylation in AN3CA tumor; assay: S6 phosphorylation inhibition assay in xenograft; type: in vivo, female nude mouse; settings: Mus musculus, AN3-CA, oral, 6 hr after dosing
Method: as §2, §3

PI3Kα, sequence (P42336 whole entry, species assumed): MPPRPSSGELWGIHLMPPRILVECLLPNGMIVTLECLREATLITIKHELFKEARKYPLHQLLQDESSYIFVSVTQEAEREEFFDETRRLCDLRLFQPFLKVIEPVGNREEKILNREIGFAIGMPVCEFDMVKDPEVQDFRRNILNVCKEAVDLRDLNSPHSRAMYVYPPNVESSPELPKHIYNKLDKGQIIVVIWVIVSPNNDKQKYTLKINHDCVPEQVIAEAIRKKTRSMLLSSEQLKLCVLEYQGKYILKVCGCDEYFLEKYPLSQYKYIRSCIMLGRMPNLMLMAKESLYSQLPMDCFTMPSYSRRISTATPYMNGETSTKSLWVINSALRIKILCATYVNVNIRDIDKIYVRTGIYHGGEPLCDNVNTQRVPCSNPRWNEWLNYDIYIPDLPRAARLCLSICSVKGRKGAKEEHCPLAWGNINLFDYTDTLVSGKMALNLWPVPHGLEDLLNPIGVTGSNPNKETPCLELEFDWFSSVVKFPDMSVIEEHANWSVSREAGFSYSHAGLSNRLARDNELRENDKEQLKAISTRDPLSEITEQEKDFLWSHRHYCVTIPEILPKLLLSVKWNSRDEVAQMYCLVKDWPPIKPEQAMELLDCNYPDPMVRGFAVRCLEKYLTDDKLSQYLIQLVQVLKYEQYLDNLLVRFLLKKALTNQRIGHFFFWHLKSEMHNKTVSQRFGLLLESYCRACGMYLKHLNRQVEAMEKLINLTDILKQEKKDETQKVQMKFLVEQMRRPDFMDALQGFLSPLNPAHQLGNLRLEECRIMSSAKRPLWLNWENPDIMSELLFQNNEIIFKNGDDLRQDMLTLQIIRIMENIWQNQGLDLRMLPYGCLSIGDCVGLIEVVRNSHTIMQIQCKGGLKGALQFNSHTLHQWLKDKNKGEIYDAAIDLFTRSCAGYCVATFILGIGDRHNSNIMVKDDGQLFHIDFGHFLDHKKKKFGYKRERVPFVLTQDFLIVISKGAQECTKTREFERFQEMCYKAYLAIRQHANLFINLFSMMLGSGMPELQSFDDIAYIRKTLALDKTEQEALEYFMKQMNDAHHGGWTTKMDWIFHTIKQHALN
PI3Kα, sequence (P27986 whole entry partner, species assumed): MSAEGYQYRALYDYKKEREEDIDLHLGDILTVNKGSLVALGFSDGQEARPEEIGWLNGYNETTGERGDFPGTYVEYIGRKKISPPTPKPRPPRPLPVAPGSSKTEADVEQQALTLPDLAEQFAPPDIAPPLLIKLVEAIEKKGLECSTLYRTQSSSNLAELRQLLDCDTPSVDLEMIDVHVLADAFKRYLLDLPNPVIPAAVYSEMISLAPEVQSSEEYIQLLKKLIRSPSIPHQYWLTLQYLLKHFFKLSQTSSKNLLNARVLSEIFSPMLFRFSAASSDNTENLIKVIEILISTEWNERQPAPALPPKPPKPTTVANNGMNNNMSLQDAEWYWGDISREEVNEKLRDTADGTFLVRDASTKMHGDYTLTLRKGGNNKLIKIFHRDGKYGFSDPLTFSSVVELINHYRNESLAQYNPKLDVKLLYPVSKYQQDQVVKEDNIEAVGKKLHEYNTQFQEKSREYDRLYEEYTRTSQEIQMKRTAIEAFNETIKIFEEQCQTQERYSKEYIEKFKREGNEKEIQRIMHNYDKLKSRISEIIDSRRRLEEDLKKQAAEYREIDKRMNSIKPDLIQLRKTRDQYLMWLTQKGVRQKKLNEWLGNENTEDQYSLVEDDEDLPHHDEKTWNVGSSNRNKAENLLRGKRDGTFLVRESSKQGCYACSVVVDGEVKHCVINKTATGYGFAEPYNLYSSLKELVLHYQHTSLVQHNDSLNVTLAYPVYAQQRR

Structure (SMILES) | IC50 (PI3Kα) | GI50 [1] | GI50 [2] | GI50 [3] | inhibition at 10 mg/kg [4] | inhibition at 10 mg/kg [5]
CC(C)Cn1c(N2CCN(S(C)(=O)=O)CC2)nc2c(N3CCOCC3)nc(-c3cnc(N)nc3)nc21 [Example 1, 5-{9-Isobutyl-8-[4-(methylsulfonyl)piperazin-1-yl]-6-morpholin-4-yl-9H-purin-2-yl}pyrimidin-2-amine] | 0.01 to 0.02 µM | ≤ 5 µM | ≤ 5 µM | ≤ 5 µM |  | 
CC(=O)N1CCN(c2nc3c(N4CCOCC4)nc(-c4cnc(N)nc4)nc3n2CC(C)C)CC1 [Example 2, 5-[8-(4-Acetylpiperazin-1-yl)-9-isobutyl-6-morpholin-4-yl-9H-purin-2-yl]pyrimidin-2-amine] | 0.01 to 0.02 µM | ≤ 5 µM | ≤ 5 µM | ≤ 5 µM |  | 
CS(=O)(=O)N1CCN(c2nc3c(N4CCOCC4)nc(-c4cnc(N)nc4)nc3n2CC2CC2)CC1 [Example 3, 5-{9-(Cyclopropylmethyl)-8-[4-(methylsulfonyl)piperazin-1-yl]-6-morpholin-4-yl-9H-purin-2-yl}pyrimidin-2-amine] | < 0.01 µM | ≤ 5 µM | ≤ 5 µM | ≤ 5 µM | > 60% | > 90%
Cc1nc(N)ncc1-c1nc(N2CCOCC2)c2nc(N3CCN(S(C)(=O)=O)CC3)n(CC3CC3)c2n1 [Example 6, 5-{9-(Cyclopropylmethyl)-8-[4-(methylsulfonyl)piperazin-1-yl]-6-morpholin-4-yl-9H-purin-2-yl}-4-methylpyrimidin-2-amine] | < 0.01 µM | ≤ 5 µM | ≤ 5 µM | ≤ 5 µM | > 60% | 
CS(=O)(=O)N1CCN(c2nc3c(N4CCOCC4)nc(-c4cnc(N)nc4)nc3n2CC(F)(F)F)CC1 [Example 8, 5-{8-[4-(Methylsulfonyl)piperazin-1-yl]-6-morpholin-4-yl-9-(2,2,2-trifluoroethyl)-9H-purin-2-yl}pyrimidin-2-amine] | < 0.01 µM | ≤ 5 µM | ≤ 5 µM | ≤ 5 µM | > 60% | > 90%
CC(=O)N1CCN(c2nc3c(N4CCOCC4)nc(-c4cnc(N)nc4)nc3n2CC2CC2)CC1 [Example 10, 5-[8-(4-Acetylpiperazin-1-yl)-9-(cyclopropylmethyl)-6-morpholin-4-yl-9H-purin-2-yl]pyrimidin-2-amine] | < 0.01 µM | ≤ 5 µM | ≤ 5 µM | ≤ 5 µM |  | 
CNc1ncc(-c2nc(N3CCOCC3)c3nc(N4CCN(S(C)(=O)=O)CC4)n(CC(F)(F)F)c3n2)cn1 [Example 11, N-Methyl-5-{8-[4-(methylsulfonyl)piperazin-1-yl]-6-morpholin-4-yl-9-(2,2,2-trifluoroethyl)-9H-purin-2-yl}pyrimidin-2-amine] | 0.01 to 0.02 µM | ≤ 5 µM | ≤ 5 µM | ≤ 5 µM |  | 
C[C@@H]1CN(c2nc3c(N4CCOCC4)nc(-c4cnc(N)nc4)nc3n2CC(F)(F)F)C[C@H](C)N1 [Example 14, 5-[8-(cis-3,5-Dimethylpiperazin-1-yl)-6-morpholin-4-yl-9-(2,2,2-trifluoroethyl)-9H-purin-2-yl]pyrimidin-2-amine] | < 0.01 µM | ≤ 5 µM | ≤ 5 µM | ≤ 5 µM |  | 
CC(C)Cn1c(N2CCN(S(C)(=O)=O)[C@@H](C)C2)nc2c(N3CCOCC3)nc(-c3cnc(N)nc3)nc21 [Example 53, 5-{9-Isobutyl-8-[(3S)-3-methyl-4-(methylsulfonyl)piperazin-1-yl]-6-morpholin-4-yl-9H-purin-2-yl}pyrimidin-2-amine] | 0.01 to 0.02 µM | ≤ 5 µM | ≤ 5 µM | ≤ 5 µM | 30 to 60% | 
CC(C)Cn1c(N2CCN(S(C)(=O)=O)[C@H](C)C2)nc2c(N3CCOCC3)nc(-c3cnc(N)nc3)nc21 [Example 54, 5-{9-Isobutyl-8-[(3R)-3-methyl-4-(methylsulfonyl)piperazin-1-yl]-6-morpholin-4-yl-9H-purin-2-yl}pyrimidin-2-amine] | 0.01 to 0.02 µM | ≤ 5 µM | ≤ 5 µM | ≤ 5 µM | 30 to 60% | 
CC(C)Cn1c(N2CCN(C(=O)CN(C)C)CC2)nc2c(N3CCOCC3)nc(-c3cnc(N)nc3)nc21 [Example 55, 5-(8-{4-[(Dimethylamino)acetyl]piperazin-1-yl}-9-isobutyl-6-morpholin-4-yl-9H-purin-2-yl)pyrimidin-2-amine] | < 0.01 µM | ≤ 5 µM | ≤ 5 µM | ≤ 5 µM |  | 
CS(=O)(=O)C1CCN(c2nc3c(N4CCOCC4)nc(-c4cnc(N)nc4)nc3n2CC(F)(F)F)CC1 [Example 57, 5-{8-[4-(Methylsulfonyl)piperidin-1-yl]-6-morpholin-4-yl-9-(2,2,2-trifluoroethyl)-9H-purin-2-yl}pyrimidin-2-amine] | < 0.01 µM | ≤ 5 µM | ≤ 5 µM | ≤ 5 µM | 30 to 60% | > 90%
CNc1ncc(-c2nc(N3CCOCC3)c3nc(N4CCN(CC(=O)N(C)C)[C@H](C)C4)n(CC(F)(F)F)c3n2)cn1 [Example 87, N,N-Dimethyl-2-[(2R)-2-methyl-4-{2-[2-(methylamino)pyrimidin-5-yl]-6-morpholin-4-yl-9-(2,2,2-trifluoroethyl)-9H-purin-8-yl}piperazin-1-yl]acetamide] | < 0.01 µM | ≤ 5 µM | ≤ 5 µM | ≤ 5 µM | > 60% | 
CC(=O)N1CCN(c2nc3c(N4CCOCC4)nc(-c4cnc(N)nc4)nc3n2CC(C)C)C[C@H]1C [Example 99, 5-{8-[(3R)-4-Acetyl-3-methylpiperazin-1-yl]-9-isobutyl-6-morpholin-4-yl-9H-purin-2-yl}pyrimidin-2-amine] | 0.01 to 0.02 µM | ≤ 5 µM | ≤ 5 µM | ≤ 5 µM | 30 to 60% | 
C[C@H]1COCCN1c1nc(-c2cnc(N)nc2)nc2c1nc(N1CCN(S(C)(=O)=O)CC1)n2CC(F)(F)F [Example 127, 5-{6-[(3S)-3-Methylmorpholin-4-yl]-8-[4-(methylsulfonyl)piperazin-1-yl]-9-(2,2,2-trifluoroethyl)-9H-purin-2-yl}pyrimidin-2-amine] | < 0.01 µM | ≤ 5 µM | ≤ 5 µM | ≤ 5 µM |  | 
CC(=O)N1CCN(c2nc3c(N4CCOC[C@@H]4C)nc(-c4cnc(N)nc4C)nc3n2CC2CC2)CC1 [Example 128, 5-{8-(4-acetylpiperazin-1-yl)-9-(cyclopropylmethyl)-6-[(3S)-3-methylmorpholin-4-yl]-9H-purin-2-yl}-4-methylpyrimidin-2-amine] | 0.01 to 0.02 µM | ≤ 5 µM | ≤ 5 µM | ≤ 5 µM | 30 to 60% | 
CC(=O)N1CCN(c2nc3c(N4CCOC[C@@H]4C)nc(-c4cnc(N)nc4)nc3n2CC(C)C)CC1 [Example 129, 5-{8-(4-Acetylpiperazin-1-yl)-9-isobutyl-6-[(3S)-3-methylmorpholin-4-yl]-9H-purin-2-yl}pyrimidin-2-amine] | 0.01 to 0.02 µM | ≤ 5 µM | ≤ 5 µM | ≤ 5 µM |  | 70 to 90%
